Measured values published in patent US20220162192A1 (ESCAPE Bio, Inc., priority 2019, published 2022).
pIC50: −log10 of the molar value. Where two headings read alike, the source gives them in different places.

Legend:
[1] = target: T1, Recombinant wild type LRRK2 protein (Homo sapiens, UniProt Q5S007); experiment: LanthaScreen Kinase Activity Assay (TR-FRET), wild type LRRK2; type: biochemical; details: 25 μM ATP, 400 nM LRRKtide, 2.9 nM kinase, 60 min at room temperature, read-out: LRRK2 WT IC50
T1 construct: purchased Life Technologies PR8604B
In short: (§1)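 Recombinant wild-type or G2019S LRRK2 (2.9 nM final) phosphorylated fluorescein-LRRKtide (400 nM) with 25 μM ATP in 50 mM Tris pH 8.5, 5 mM MgCl2, 1 mM EGTA, 0.01% Brij-35, 2 mM DTT for 60 min at RT. After EDTA stop, Tb-anti-pERM TR-FRET (520/495 nm ratio) was read. IC50 values came from 11-point, 3-fold compound dilutions.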

[2] = target: T2, Recombinant G2019S-LRRK2 protein (Homo sapiens, UniProt Q5S007, G2019S); experiment: LanthaScreen Kinase Activity Assay (TR-FRET), G2019S-LRRK2; type: biochemical; details: class symbols; 25 μM ATP, 400 nM LRRKtide, 2.9 nM kinase, 60 min at room temperature
T2 construct: purchased Life Technologies PV4881
In short: as §1

[3] = numeric bound instead of class symbol

T1 sequence (Q5S007 whole entry): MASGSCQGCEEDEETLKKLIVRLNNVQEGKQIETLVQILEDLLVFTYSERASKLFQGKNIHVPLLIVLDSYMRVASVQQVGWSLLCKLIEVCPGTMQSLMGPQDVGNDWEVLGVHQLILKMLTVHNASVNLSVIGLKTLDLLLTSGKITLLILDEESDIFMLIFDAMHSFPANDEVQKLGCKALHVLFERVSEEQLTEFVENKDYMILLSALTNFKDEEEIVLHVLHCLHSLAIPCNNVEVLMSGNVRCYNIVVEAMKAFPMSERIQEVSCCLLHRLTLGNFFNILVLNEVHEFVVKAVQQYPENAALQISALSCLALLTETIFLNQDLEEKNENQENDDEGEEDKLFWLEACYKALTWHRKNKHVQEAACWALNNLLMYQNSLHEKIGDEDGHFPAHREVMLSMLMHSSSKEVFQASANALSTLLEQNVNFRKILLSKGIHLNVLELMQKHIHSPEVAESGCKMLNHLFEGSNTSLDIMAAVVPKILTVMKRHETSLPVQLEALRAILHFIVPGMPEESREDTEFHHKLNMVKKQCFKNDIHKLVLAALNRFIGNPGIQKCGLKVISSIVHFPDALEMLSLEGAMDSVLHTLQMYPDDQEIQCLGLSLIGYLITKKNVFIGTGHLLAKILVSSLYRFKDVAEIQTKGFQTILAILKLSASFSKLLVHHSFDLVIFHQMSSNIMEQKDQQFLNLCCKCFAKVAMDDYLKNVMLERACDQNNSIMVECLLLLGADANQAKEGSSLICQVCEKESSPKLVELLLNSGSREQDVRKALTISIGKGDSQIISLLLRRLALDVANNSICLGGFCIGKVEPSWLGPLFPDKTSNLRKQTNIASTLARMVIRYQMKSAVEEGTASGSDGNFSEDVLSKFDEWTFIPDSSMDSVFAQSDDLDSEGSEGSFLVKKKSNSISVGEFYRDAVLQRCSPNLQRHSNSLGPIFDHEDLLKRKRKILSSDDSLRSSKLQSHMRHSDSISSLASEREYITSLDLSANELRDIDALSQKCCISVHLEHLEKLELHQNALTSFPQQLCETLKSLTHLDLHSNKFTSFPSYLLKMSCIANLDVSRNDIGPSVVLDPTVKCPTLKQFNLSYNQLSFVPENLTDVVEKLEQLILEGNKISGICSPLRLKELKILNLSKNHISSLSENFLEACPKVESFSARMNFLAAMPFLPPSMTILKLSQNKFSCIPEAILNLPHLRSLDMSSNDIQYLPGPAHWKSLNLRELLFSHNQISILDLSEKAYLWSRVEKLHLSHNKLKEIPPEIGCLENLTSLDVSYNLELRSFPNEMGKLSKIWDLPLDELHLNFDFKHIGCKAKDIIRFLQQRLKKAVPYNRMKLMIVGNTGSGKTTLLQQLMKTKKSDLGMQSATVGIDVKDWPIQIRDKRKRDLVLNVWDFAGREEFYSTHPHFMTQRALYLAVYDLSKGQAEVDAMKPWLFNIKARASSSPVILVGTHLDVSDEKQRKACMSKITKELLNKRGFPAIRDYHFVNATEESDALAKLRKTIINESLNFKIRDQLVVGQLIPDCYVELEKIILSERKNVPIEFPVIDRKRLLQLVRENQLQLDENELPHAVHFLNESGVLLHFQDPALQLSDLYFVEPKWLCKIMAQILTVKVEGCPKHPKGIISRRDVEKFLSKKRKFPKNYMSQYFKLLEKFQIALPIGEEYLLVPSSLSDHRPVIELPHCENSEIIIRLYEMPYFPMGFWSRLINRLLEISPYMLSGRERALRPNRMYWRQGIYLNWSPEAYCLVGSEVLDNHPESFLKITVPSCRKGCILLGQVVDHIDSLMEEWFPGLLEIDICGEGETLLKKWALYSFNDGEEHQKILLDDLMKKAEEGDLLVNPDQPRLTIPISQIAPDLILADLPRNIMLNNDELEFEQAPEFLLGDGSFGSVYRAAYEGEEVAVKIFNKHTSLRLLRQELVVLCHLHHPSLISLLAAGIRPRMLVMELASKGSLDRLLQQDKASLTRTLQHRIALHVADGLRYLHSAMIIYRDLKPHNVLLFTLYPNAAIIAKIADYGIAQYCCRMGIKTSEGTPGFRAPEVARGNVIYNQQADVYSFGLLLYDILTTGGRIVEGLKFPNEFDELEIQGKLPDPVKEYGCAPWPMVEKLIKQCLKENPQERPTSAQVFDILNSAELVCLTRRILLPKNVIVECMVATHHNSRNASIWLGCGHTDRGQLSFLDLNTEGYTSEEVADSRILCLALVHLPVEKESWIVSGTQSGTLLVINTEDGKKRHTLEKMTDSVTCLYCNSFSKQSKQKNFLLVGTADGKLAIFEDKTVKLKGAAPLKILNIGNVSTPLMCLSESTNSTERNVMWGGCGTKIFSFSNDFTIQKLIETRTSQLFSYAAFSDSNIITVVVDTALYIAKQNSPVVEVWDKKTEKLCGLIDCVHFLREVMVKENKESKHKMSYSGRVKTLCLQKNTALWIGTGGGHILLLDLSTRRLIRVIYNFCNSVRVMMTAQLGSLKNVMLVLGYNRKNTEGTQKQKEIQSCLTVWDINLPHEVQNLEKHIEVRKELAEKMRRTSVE
T2 sequence (Q5S007 whole entry G2019S): as the sequence (Q5S007 whole entry) above, with G2019S counted along it

pIC50 [1, 3] | pIC50 [2] | pIC50 ([1]; class symbols) | SMILES
< 5.00 | 5.00 to 6.00 | – | Cn1ncc2c(F)c(C(=O)Nc3ccc4[nH]nc(-c5ccccc5OC(F)(F)F)c4c3)c(F)cc21 [Example 93, 4,6-Difluoro-1-methyl-N-(3-(2-(trifluoromethoxy)phenyl)-1H-indazol-5-yl)-1H-indazole-5-carboxamide]
– | ≥ 7.00 | 6.00 to 7.00 | Cc1cc2cnnn2c(C)c1C(=O)Nc1ccc2[nH]nc(-c3ccccc3F)c2c1 [Example 44, N-(3-(2-Fluorophenyl)-1H-indazol-5-yl)-5,7-dimethyl-[1,2,3]triazolo[1,5-a]pyridine-6-carboxamide]
– | ≥ 7.00 | 6.00 to 7.00 | Cn1ncc2c(F)c(C(=O)Nc3ccc4[nH]nc(-c5cocn5)c4c3)c(F)cc21 [Example 136, 4,6-Difluoro-1-methyl-N-(3-(oxazol-4-yl)-1H-indazol-5-yl)-1H-indazole-5-carboxamide]
– | 6.00 to 7.00 | 6.00 to 7.00 | O=C(Nc1ccc2[nH]nc(-c3ccoc3)c2c1)c1ccc2scnc2c1 [Example 124, N-(3-(Furan-3-yl)-1H-indazol-5-yl)benzo[d]thiazole-5-carboxamide]
– | ≥ 7.00 | 6.00 to 7.00 | Cn1nccc1-c1n[nH]c2ccc(NC(=O)c3c(F)cc4c(cnn4C)c3F)cc12 [Example 96, 4,6-Difluoro-1-methyl-N-(3-(1-methyl-1H-pyrazol-5-yl)-1H-indazol-5-yl)-1H-indazole-5-carboxamide]
– | ≥ 7.00 | ≥ 7.00 | Cc1cn2nc(C(=O)Nc3ccc4[nH]nc(-c5ccoc5)c4c3)cc2c(C)n1 [Example 163, N-(3-(Furan-3-yl)-1H-indazol-5-yl)-4,6-dimethylpyrazolo[1,5-a]pyrazine-2-carboxamide]
< 5.00 | 5.00 to 6.00 | – | Cc1n[nH]c2ccc(NC(=O)c3cc4nn[nH]c4cc3C(F)(F)F)cc12 [Example 10, N-(3-Methyl-1H-indazol-5-yl)-6-(trifluoromethyl)-1H-benzo[d][1,2,3]triazole-5-carboxamide]
– | ≥ 7.00 | ≥ 7.00 | Cc1cc2cnnn2cc1C(=O)Nc1ccc2[nH]nc(-c3ccccc3)c2c1 [Example 43, 5-Methyl-N-(3-phenyl-1H-indazol-5-yl)-[1,2,3]triazolo[1,5-a]pyridine-6-carboxamide]
– | 6.00 to 7.00 | 6.00 to 7.00 | Cc1nn2ccncc2c1C(=O)Nc1ccc2[nH]nc(-c3ccoc3)c2c1 [Example 164, N-(3-(furan-3-yl)-1H-indazol-5-yl)-2-methylpyrazolo[1,5-a]pyrazine-3-carboxamide]
– | ≥ 7.00 | ≥ 7.00 | Cc1nc2cncn2c(C)c1C(=O)Nc1ccc2[nH]nc(I)c2c1 [Example 111, N-(3-Iodo-1H-indazol-5-yl)-2,4-dimethylimidazo[1,5-a]pyrimidine-3-carboxamide]
– | ≥ 7.00 | ≥ 7.00 | Cc1c(C(=O)Nc2ccc3[nH]nc(-c4ccoc4)c3c2)cnc2cncn12 [Example 113, N-(3-(Furan-3-yl)-1H-indazol-5-yl)-4-methylimidazo[1,5-a]pyrimidine-3-carboxamide]
– | 6.00 to 7.00 | 6.00 to 7.00 | O=C(Nc1ccc2[nH]nc(-c3ccoc3)c2c1)c1ccn2ccnc2c1 [Example 118, N-(3-(Furan-3-yl)-1H-indazol-5-yl)imidazo[1,2-a]pyridine-7-carboxamide]
– | ≥ 7.00 | ≥ 7.00 | Cc1cn2cnnc2c(C)c1C(=O)Nc1ccc2[nH]nc(-c3ccccc3)c2c1 [Example 57, 6,8-Dimethyl-N-(3-phenyl-1H-indazol-5-yl)-[1,2,4]triazolo[4,3-a]pyridine-7-carboxamide]
– | ≥ 7.00 | 6.00 to 7.00 | O=C(Nc1ccc2[nH]nc(-c3ccoc3)c2c1)c1cc2ncccc2s1 [Example 125, N-(3-(Furan-3-yl)-1H-indazol-5-yl)thieno[3,2-b]pyridine-2-carboxamide]
– | ≥ 7.00 | 6.00 to 7.00 | Cn1ncc2c(F)c(C(=O)Nc3ccc4[nH]nc(NCc5ccccc5)c4c3)c(F)cc21 [Example 110, N-(3-(Benzylamino)-1H-indazol-5-yl)-4,6-difluoro-1-methyl-1H-indazole-5-carboxamide]
< 5.00 | 6.00 to 7.00 | – | Cn1ncc2c(F)c(C(=O)Nc3ccc4[nH]nc(-c5ccccc5C#N)c4c3)c(F)cc21 [Example 74, N-(3-(2-Cyanophenyl)-1H-indazol-5-yl)-4,6-difluoro-1-methyl-1H-indazole-5-carboxamide]
– | ≥ 7.00 | 6.00 to 7.00 | Cn1ncc2c(F)c(C(=O)Nc3ccc4[nH]nc(C(F)(F)F)c4c3)c(F)cc21 [Example 115, 4,6-Difluoro-1-methyl-N-(3-(trifluoromethyl)-1H-indazol-5-yl)-1H-indazole-5-carboxamide]
– | ≥ 7.00 | ≥ 7.00 | Cc1cc2cnsc2nc1C(=O)Nc1ccc2[nH]nc(-c3cnco3)c2c1 [Example 168, 5-Methyl-N-(3-(oxazol-5-yl)-1H-indazol-5-yl)isothiazolo[5,4-b]pyridine-6-carboxamide]
– | ≥ 7.00 | ≥ 7.00 | Cc1cc2nncn2c(C)c1C(=O)Nc1ccc2[nH]nc(-c3ccoc3)c2c1 [Example 153, N-(3-(Furan-3-yl)-1H-indazol-5-yl)-5,7-dimethyl-[1,2,4]triazolo[4,3-a]pyridine-6-carboxamide]
– | ≥ 7.00 | ≥ 7.00 | Cc1c(C(=O)Nc2ccc3[nH]nc(-c4ccccc4)c3c2)ccn2nncc12 [Example 149, 4-Methyl-N-(3-phenyl-1H-indazol-5-yl)-[1,2,3]triazolo[1,5-a]pyridine-5-carboxamide]
– | 5.00 to 6.00 | 5.00 to 6.00 | Cc1cc2nn(C)nc2cc1C(=O)Nc1ccc2[nH]nc(C)c2c1 [Example 3, 2,6-Dimethyl-N-(3-methyl-1H-indazol-5-yl)-2H-benzo[d][1,2,3]triazole-5-carboxamide]
– | ≥ 7.00 | ≥ 7.00 | Cc1ccc(-c2n[nH]c3ccc(NC(=O)c4c(F)cc5c(cnn5C)c4F)cc23)s1 [Example 97, 4,6-Difluoro-1-methyl-N-(3-(5-methylthiophen-2-yl)-1H-indazol-5-yl)-1H-indazole-5-carboxamide]
– | 5.00 to 6.00 | 5.00 to 6.00 | Cc1n[nH]c2ccc(NC(=O)c3ccc4nnc(C)n4c3)cc12 [Example 8, 3-Methyl-N-(3-methyl-1H-indazol-5-yl)-[1,2,4]triazolo[4,3-a]pyridine-6-carboxamide]
– | ≥ 7.00 | ≥ 7.00 | COc1cncc(-c2n[nH]c3ccc(NC(=O)c4c(F)cc5c(cnn5C)c4F)cc23)c1 [Example 82, 4,6-Difluoro-N-(3-(5-methoxypyridin-3-yl)-1H-indazol-5-yl)-1-methyl-1H-indazole-5-carboxamide]
– | ≥ 7.00 | ≥ 7.00 | Cn1ncc2cc(C(=O)Nc3ccc4[nH]nc(-c5ccoc5)c4c3)ccc21 [Example 133, N-(3-(Furan-3-yl)-1H-indazol-5-yl)-1-methyl-1H-indazole-5-carboxamide]
– | ≥ 7.00 | 6.00 to 7.00 | Cn1cc(-c2n[nH]c3ccc(NC(=O)c4c(F)cc5c(cnn5C)c4F)cc23)c(C(F)(F)F)n1 [Example 92, 4,6-Difluoro-1-methyl-N-(3-(1-methyl-3-(trifluoromethyl)-1H-pyrazol-4-yl)-1H-indazol-5-yl)-1H-indazole-5-carboxamide]
